Results on three compounds are retold here after ChEMBL document CHEMBL1153821, “Identification of novel inhibitors of HCV RNA-dependent RNA polymerase by pharmacophore-based virtual screening and in vitro evaluation” (Bioorg Med Chem, 2009).

pIC50: −log10 of the molar value. Activity calls are given as the source filed them. The rule behind the calls is not given here.

For assay [1], the system named is Hepatitis C virus. Briefly: Inhibition of HCV1b NS5B polymerase at 100 uM after 2 hrs by RdRp activity assay. Also on record: species or system Hepatitis C virus subtype 1b.
Assay [2] relates to Hepatitis C virus. Briefly: Inhibition of HCV1b NS5B polymerase after 2 hrs by RdRp activity assay. Details: species or system Hepatitis C virus subtype 1b.
Assay [3] relates to Hepatitis C virus. Kind of assay: Inhibition of HCV1b NS5B polymerase assessed as [alpha-32P]UTP incorporation by non-competitive double reciprocal plot. Particulars: Hepatitis C virus subtype 1b.

As to `Nc1ncnc2c1ncn2/C=C/C(=O)c1ccco1`, in assay [1], the inhibition at 100 µM is above 80%. The same compound showed a pIC50 in assay [2] of 4.70. The outcome in assay [3] was Active.

For the compound `Nc1ncnc2c1ncn2/C=C/C(=O)c1ccccc1`, the inhibition at 100 µM in assay [1] was above 80%. In assay [2], this compound showed a pIC50 of 4.70. Besides, the result in assay [3] was Active.

For `O=C(Nc1cccn(Cc2ccc(Cl)c(Cl)c2)c1=O)Sc1cccc(C(F)(F)F)c1`, in assay [1], the inhibition at 100 µM was above 80%. Besides, the negative-log IC50 (pIC50) in assay [2] was 4.70. Moreover, the outcome in assay [3] was Active.

The inhibition is the drop in the measured response relative to a control, in per cent. A high value points to a response far below the control. As usually defined, the pIC50 is the negative decadic logarithm of the IC50, by convention in mol/L. Low values mean a large IC50, high ones a small IC50.
